Measurements: patent publication US12534477B2, “Compound having KHK inhibitory effect” (HANGZHOU ZHONGMEIHUADONG PHARMACEUTICAL CO., LTD., priority 2019, dated 2026)
Like-named read-outs stand apart in the source and are kept apart here.

Assays:
[1] = molecular target: CYP2D6 (Homo sapiens (Human), UniProt P10635); assay: Inhibitory activity on human liver microsomal cytochrome P450 isozymes; assay type: in vitro ADME; conditions: human liver microsomes
Description: (§1) The inhibitory effect of test compounds on the activity of human hepatic microsomal cytochrome P450 isozymes (CYP1A2, CYP2C9, CYP2C19, CYP2D6 and CYP3A4) was determined.
(§2) First, the test compound (10 mM) was diluted in gradient to prepare working solutions (100×final concentration) with working solution concentrations: 5, 1.5, 0.5, 0.15, 0.05, 0.015, 0.005 mM, respectively, and at the same time, working solutions of each positive inhibitor of P450 isozymes (CYP1A2, CYP2C9, CYP2C19, CYP2D6 and CYP3A4) and its specific substrate mixture were prepared. Human liver microsomes frozen in a −80° C. refrigerator were thawed on ice, and diluted with PB (phosphate buffer) after all the human liver microsomes were dissolved, to prepare a working solution at a certain concentration (0.253 mg/mL). 20 μl substrate mixture was added to the reaction plate (20 μL PB was added to the Blank wells) while 158 μL human liver microsome working solution was added to the reaction plate which was placed on ice for later use. At this time, 2 μL of each concentration of the test compound (N=1) and the specific inhibitor (N=2) were added to the corresponding wells, and the corresponding organic solvents were added to the groups without inhibitors (the test compound or the positive inhibitor) as control samples (1:1 DMSO:MeOH for the test compound control sample, and 1:9 DMSO:MeOH for the positive control sample). After pre-incubation in 37° C. water bath for 10 min, 20 μL coenzyme factor (NADPH) solution was added to the reaction plate, and incubated in 37° C. water bath for 10 min. 400 μL cold acetonitrile solution (200 ng/mL Tolbutamide and Labetalol as the internal standard) was added to stop the reaction. The reaction plate was placed on a shaker and shaken for 10 min. The mixture was centrifuged at 4,000 rpm for 20 min, and 200 μl the supernatant was added to 100 μL water for sample dilution. Finally, the plate was sealed, shaken, mixed well and detected by LC/MS/MS.

[2] = molecular target: CYP2C19 (Homo sapiens (Human), UniProt P33261); assay: as above; assay type: in vitro ADME; conditions: human liver microsomes
Chain of CYP2C19 (P33261 whole entry): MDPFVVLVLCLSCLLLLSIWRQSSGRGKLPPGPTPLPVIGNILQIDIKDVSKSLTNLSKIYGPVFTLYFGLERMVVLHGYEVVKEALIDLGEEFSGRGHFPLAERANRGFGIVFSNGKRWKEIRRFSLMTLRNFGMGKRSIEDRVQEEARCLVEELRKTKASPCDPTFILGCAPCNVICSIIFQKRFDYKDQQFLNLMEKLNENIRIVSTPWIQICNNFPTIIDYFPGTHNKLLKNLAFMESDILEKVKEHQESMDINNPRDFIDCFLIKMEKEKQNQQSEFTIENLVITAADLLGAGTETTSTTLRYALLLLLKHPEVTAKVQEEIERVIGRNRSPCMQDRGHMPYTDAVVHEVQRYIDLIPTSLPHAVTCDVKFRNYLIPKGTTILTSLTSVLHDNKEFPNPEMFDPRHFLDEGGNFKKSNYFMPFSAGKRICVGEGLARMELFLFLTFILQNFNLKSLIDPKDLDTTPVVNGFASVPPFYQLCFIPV
Description: as §1, §2

[3] = molecular target: CYP2C9 (Homo sapiens (Human), UniProt P11712); assay: as above; assay type: in vitro ADME; conditions: human liver microsomes
Chain of CYP2C9 (P11712 whole entry): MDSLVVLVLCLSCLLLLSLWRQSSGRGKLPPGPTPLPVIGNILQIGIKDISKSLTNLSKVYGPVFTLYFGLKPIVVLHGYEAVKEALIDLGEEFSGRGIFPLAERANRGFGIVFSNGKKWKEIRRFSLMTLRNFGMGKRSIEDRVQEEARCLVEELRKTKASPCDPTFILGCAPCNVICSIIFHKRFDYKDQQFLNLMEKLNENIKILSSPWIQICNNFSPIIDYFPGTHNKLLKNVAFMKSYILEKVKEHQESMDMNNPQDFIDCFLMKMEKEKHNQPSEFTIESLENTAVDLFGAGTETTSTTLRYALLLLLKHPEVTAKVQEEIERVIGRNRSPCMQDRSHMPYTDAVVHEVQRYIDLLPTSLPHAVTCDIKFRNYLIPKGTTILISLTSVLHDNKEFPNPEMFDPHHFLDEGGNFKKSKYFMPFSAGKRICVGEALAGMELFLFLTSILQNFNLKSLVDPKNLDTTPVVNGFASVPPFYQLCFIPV
Description: as §1, §2

[4] = molecular target: CYP3A4 (Homo sapiens (Human), UniProt P08684); assay: as above; assay type: in vitro ADME; conditions: human liver microsomes
Chain of CYP3A4 (P08684 whole entry): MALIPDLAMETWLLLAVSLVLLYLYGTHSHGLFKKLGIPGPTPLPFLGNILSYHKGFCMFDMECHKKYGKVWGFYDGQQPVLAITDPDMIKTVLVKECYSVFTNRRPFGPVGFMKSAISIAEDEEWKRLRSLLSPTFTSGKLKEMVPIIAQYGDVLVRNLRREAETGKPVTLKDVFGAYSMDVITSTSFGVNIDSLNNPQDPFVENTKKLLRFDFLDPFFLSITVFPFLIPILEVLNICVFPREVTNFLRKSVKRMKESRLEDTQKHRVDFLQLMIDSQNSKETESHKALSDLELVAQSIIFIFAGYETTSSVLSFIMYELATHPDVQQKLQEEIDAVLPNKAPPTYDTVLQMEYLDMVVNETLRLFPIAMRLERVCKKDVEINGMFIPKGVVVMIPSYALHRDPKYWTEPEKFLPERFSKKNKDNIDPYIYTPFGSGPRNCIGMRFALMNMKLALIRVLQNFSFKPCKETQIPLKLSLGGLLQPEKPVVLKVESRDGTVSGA
Description: as §1, §2

[5] = Liver-blood ratio, tissue distribution in rats; assay type: in vivo, SD rats; conditions: SD, rat, 1 mg/kg, PO 1 mpk
Description: Tissue distribution of compounds in SD rats was tested.
In the experiment, candidate compounds were formulated as clear solutions and administered to rats in a single oral dose (PO, 1 mpk). The vehicle for oral administration was a certain proportion of methylcellulose and Tween 80 in water. Whole blood was collected at a certain time and plasma was prepared, and tissues were collected at the corresponding time and prepared into tissue homogenates. Drug concentration was analyzed by LC-MS/MS, and pharmacokinetic parameters were calculated by Phoenix WinNonlin software.

[6] = brain, read-out: Brain tissue concentration
[7] = brain/plasma, read-out: Brain-blood ratio
[8] = liver, read-out: Liver tissue concentration
[9] = liver/plasma, read-out: Liver-blood ratio
[10] = plasma, read-out: Plasma concentration

Chain of CYP2D6 (P10635 whole entry): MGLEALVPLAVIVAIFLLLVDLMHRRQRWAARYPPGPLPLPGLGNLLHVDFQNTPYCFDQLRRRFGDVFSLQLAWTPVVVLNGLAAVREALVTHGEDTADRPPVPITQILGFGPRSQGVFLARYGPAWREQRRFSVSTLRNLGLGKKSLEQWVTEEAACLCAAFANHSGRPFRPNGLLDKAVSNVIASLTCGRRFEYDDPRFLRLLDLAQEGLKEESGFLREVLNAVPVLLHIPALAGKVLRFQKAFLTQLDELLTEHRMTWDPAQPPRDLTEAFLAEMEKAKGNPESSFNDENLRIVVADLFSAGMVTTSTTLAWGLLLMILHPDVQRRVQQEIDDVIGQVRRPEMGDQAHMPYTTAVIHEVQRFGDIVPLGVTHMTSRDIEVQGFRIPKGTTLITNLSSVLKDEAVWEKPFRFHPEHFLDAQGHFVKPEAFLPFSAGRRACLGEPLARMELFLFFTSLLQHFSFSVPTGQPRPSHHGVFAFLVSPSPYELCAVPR

IC50 [1]: > 50 µM
IC50 [2]: > 50 µM
IC50 [3]: > 50 µM
IC50 [4]: > 50 µM
concentration at 1.5 h [5, 6]: 0.105 µM
concentration at 2 h [5, 6]: 0.148 µM
concentration at 6 h [5, 6]: 0.071 µM
Kp at 1.5 h [5, 7]: 0.022
Kp at 2 h [5, 7]: 0.019
Kp at 6 h [5, 7]: 0.023
concentration at 1.5 h [5, 8]: 4.42 µM
concentration at 2 h [5, 8]: 6.37 µM
concentration at 6 h [5, 8]: 3.9 µM
Kp at 1.5 h [5, 9]: 0.943
Kp at 2 h [5, 9]: 0.821
Kp at 6 h [5, 9]: 1.22
concentration at 1.5 h [5, 10]: 4.67 µM
concentration at 2 h [5, 10]: 7.75 µM
concentration at 6 h [5, 10]: 3.67 µM
Compound: C[C@H]1CCN1c1nc(N2C[C@@H]3[C@@H](CC(=O)O)[C@@H]3C2)c2ccsc2n1 [WX004]
